The text below walks through data of article PMC3833278, “De Novo Design of Protein Kinase Inhibitors by in Silico Identification of Hinge Region-Binding Fragments” (ACS Chemical Biology, 2013).

Common to all, as to type: biochemical
The target of one assay is T1, MSK1 (Homo sapiens, UniProt O75582).
T1 construct: MRC Protein Phosphorylation Unit, University of Dundee (screening panel)
Description: Kinase panel screen at 100 μM, radioactive filter-binding assay. The protocol:
(§1) A subset of library compounds was tested against a panel of 117 protein kinases as proof of concept study (Figure 4). The compounds were chosen to cover all six core fragments and to be fragment-sized (MW < 300 Da), therefore having a higher probability of inhibiting a kinase compared to more elaborated library compounds with the potential draw-back of having only moderate binding affinity.[25] […] According to these definitions, all assayed compounds were at least moderately active against at least one kinase (Figure 5a).
(§2) Selected compounds were screened against a panel of mammalian kinases routinely run in the MRC Protein Phosphorylation Unit at the University of Dundee (www.kinase-screen.mrc.ac.uk).[21] Compounds were supplied in DMSO and screened in duplicates at 100 μM concentration using a radioactive (^33P-ATP) filter-binding-assay. For hit validation and all subsequent IC50 determinations, selected compounds were solubilized in DMSO at a top concentration of 51 mM and serially diluted to achieve 10-point titration of final assay concentrations from 1 mM to 30 nM. All IC50 determination assays were done in duplicate and the IC50 values were calculated using Prism (GraphPad Software, Inc.). All biochemical assays were run below the Km^app for the ATP for each enzyme allowing comparison of inhibition across the panel.

The test system of assay [1] is panel of 117 protein kinases. The description is as above. The note with it: for number of kinases inhibited with >40% inhibition: panel of 117 kinases; for number of kinases of the docking panel for which activity was found: only kinases in the docking panel. The protocol: as §1, §2
Another assay has as its target T2, Aurora A (Homo sapiens, UniProt O14965).
T2 construct: MRC Protein Phosphorylation Unit, University of Dundee (screening panel)
Nature of the assay: Radioactive (33P-ATP) filter-binding kinase assay, IC50. The protocol:
as §2

Another assay has as its target T3, CK2 (Homo sapiens, UniProt P68400).
T3 construct: MRC Protein Phosphorylation Unit, University of Dundee (screening panel)
Described as above. The protocol:
as §2

The target in a further assay is T4, FGF-R1 (Homo sapiens, UniProt P11362).
T4 construct: MRC Protein Phosphorylation Unit, University of Dundee (screening panel)
The assay is described as above. The protocol:
as §2

The next assay has as its target T5, GCK (Homo sapiens, UniProt Q12851).
T5 construct: MRC Protein Phosphorylation Unit, University of Dundee (screening panel)
Described as above. How it is done: as §2

The target in another assay is T6, IGF-1R (Homo sapiens, UniProt P08069).
T6 construct: MRC Protein Phosphorylation Unit, University of Dundee (screening panel)
The description is as above. The protocol:
as §2

The target of a further assay is T7, TAK1 (Homo sapiens, UniProt O43318).
T7 construct: MRC Protein Phosphorylation Unit, University of Dundee (screening panel)
Described as above. How it is done:
as §2

The next assay deals with CDK2 (Homo sapiens, UniProt P24941). The description is as above.
Another assay deals with CLK2 (Homo sapiens, UniProt P49760). Described as above.
Another assay addresses T8, CHK2 (Homo sapiens, UniProt O96017).
T8 construct: MRC Protein Phosphorylation Unit, University of Dundee (screening panel)
Described as above. The protocol: as §2

A further assay has as its target T9, HER4 (Homo sapiens, UniProt Q15303).
T9 construct: MRC Protein Phosphorylation Unit, University of Dundee (screening panel)
The assay is described as above. How it is done: as §2

The next assay concerns the target T10, Src (Homo sapiens, UniProt P12931).
T10 construct: MRC Protein Phosphorylation Unit, University of Dundee (screening panel)
The assay is described as above. How it is done: as §2

A further assay deals with T11, YES1 (Homo sapiens, UniProt P07947).
T11 construct: MRC Protein Phosphorylation Unit, University of Dundee (screening panel)
The assay is described as above. The protocol:
as §2

The next assay addresses VEG-FR (Homo sapiens, UniProt P35968). The description is as above.
Another assay addresses T12, MKK1 (Homo sapiens, UniProt Q02750).
T12 construct: MRC Protein Phosphorylation Unit, University of Dundee (screening panel)
Nature of the assay: Kinase panel screen at 100 μM, radioactive filter-binding assay. The protocol:
as §1, §2

A further assay concerns the target T13, EPH-B3 (Homo sapiens, UniProt P54753).
T13 construct: MRC Protein Phosphorylation Unit, University of Dundee (screening panel)
Nature of the assay: Radioactive (33P-ATP) filter-binding kinase assay, IC50. The protocol:
as §2

The next assay concerns the target T14, PIM1 (Homo sapiens, UniProt P11309).
T14 construct: MRC Protein Phosphorylation Unit, University of Dundee (screening panel)
The assay is described as above. How it is done:
as §2

In a further assay the target is T15, PIM3 (Homo sapiens, UniProt Q86V86).
T15 construct: MRC Protein Phosphorylation Unit, University of Dundee (screening panel)
Described as above. How it is done: as §2

In a further assay the target is T16, SGK1 (Homo sapiens, UniProt O00141).
T16 construct: MRC Protein Phosphorylation Unit, University of Dundee (screening panel)
The assay is described as above. The protocol:
as §2

For another assay, the target named is GSK-3β (Homo sapiens, UniProt P49841). The description is as above.
A further assay concerns the target T17, MAPKAP-K3 (Homo sapiens, UniProt Q16644).
T17 construct: MRC Protein Phosphorylation Unit, University of Dundee (screening panel)
The description is as above. How it is done: as §2

In the next assay the target is T18, RSK2 (Homo sapiens, UniProt P51812).
T18 construct: MRC Protein Phosphorylation Unit, University of Dundee (screening panel)
The description is as above. How it is done: as §2

A further assay addresses T19, SRPK1 (Homo sapiens, UniProt Q96SB4).
T19 construct: MRC Protein Phosphorylation Unit, University of Dundee (screening panel)
The description is as above.

T6 sequence (P08069 31-1367, species assumed): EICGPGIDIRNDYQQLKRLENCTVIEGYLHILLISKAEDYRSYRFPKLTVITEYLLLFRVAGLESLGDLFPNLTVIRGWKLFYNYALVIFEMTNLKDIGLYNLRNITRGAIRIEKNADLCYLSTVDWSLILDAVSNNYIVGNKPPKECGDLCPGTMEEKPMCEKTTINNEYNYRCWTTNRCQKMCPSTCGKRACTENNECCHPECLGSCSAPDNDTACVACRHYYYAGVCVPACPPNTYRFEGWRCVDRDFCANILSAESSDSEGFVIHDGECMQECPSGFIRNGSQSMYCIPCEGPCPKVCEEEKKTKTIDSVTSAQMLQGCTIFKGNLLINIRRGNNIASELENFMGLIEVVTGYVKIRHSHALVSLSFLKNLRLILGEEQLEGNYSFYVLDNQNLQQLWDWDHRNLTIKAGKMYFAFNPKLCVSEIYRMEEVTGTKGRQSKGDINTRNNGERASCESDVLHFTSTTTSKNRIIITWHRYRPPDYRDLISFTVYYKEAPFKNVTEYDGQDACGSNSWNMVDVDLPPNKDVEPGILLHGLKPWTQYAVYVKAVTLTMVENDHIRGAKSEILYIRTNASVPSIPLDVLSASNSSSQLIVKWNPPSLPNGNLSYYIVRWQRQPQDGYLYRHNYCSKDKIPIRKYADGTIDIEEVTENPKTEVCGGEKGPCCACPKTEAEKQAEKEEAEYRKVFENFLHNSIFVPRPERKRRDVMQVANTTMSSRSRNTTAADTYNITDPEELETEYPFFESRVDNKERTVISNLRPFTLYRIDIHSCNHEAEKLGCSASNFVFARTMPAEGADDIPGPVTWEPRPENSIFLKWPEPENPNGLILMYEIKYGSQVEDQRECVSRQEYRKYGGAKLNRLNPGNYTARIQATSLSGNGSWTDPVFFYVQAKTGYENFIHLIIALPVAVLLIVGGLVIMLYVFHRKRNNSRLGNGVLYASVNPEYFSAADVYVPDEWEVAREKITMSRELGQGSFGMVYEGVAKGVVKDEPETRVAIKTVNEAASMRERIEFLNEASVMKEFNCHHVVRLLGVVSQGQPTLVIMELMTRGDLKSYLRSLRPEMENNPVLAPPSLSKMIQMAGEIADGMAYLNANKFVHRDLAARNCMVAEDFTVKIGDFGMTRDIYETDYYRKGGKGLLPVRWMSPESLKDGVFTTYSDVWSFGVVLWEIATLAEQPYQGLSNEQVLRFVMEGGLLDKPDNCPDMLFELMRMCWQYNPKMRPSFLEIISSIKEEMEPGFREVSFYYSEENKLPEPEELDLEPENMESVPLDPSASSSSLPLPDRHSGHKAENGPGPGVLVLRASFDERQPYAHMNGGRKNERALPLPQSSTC
T3 sequence (P68400 whole entry): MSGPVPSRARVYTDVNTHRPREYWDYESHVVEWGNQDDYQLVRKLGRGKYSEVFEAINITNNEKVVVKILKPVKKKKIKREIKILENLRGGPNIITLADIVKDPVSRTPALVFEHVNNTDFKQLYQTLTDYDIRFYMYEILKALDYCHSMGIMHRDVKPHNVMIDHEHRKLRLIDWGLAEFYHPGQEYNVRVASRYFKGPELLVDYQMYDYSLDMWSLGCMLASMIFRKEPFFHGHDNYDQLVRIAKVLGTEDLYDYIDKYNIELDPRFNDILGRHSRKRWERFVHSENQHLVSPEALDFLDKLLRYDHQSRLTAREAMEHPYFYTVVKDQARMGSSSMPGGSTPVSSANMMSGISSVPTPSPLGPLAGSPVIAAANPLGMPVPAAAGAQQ
T10 sequence (P12931 whole entry, species assumed): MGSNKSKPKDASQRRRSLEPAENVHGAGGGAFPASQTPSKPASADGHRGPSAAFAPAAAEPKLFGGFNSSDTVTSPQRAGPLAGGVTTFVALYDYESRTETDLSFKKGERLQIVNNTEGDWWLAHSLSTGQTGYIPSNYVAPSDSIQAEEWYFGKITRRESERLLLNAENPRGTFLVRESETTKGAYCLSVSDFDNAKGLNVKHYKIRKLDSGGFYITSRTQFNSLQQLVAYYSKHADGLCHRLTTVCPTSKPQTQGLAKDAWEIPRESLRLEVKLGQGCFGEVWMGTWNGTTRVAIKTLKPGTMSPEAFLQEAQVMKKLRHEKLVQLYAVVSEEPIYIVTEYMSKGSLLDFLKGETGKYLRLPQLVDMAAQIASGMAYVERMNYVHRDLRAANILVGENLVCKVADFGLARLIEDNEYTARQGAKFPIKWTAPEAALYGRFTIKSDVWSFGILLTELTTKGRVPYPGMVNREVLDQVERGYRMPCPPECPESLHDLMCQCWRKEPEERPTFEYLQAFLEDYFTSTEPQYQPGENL
T5 sequence (Q12851 whole entry): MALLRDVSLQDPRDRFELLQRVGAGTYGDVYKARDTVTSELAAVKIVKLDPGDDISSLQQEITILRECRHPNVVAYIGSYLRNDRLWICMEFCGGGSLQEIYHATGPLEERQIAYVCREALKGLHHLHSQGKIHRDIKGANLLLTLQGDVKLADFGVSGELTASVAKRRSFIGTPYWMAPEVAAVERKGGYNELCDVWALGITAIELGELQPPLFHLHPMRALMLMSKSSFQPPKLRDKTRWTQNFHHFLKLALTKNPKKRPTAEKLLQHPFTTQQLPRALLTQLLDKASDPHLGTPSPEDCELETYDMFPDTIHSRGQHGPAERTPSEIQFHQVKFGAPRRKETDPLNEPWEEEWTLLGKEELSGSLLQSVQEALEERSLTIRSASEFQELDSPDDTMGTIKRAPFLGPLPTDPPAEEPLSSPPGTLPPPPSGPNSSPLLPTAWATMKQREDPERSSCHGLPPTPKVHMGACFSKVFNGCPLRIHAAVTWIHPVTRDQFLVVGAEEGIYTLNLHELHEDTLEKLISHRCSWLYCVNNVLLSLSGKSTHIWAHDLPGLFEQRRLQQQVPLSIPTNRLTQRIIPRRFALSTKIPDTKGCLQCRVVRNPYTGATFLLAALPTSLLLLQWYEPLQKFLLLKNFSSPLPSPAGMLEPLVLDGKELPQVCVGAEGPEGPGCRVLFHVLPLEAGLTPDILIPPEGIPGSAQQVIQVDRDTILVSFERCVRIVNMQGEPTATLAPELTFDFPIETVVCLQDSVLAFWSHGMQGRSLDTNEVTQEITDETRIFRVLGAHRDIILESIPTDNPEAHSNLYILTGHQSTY
T4 sequence (P11362 22-822, species assumed): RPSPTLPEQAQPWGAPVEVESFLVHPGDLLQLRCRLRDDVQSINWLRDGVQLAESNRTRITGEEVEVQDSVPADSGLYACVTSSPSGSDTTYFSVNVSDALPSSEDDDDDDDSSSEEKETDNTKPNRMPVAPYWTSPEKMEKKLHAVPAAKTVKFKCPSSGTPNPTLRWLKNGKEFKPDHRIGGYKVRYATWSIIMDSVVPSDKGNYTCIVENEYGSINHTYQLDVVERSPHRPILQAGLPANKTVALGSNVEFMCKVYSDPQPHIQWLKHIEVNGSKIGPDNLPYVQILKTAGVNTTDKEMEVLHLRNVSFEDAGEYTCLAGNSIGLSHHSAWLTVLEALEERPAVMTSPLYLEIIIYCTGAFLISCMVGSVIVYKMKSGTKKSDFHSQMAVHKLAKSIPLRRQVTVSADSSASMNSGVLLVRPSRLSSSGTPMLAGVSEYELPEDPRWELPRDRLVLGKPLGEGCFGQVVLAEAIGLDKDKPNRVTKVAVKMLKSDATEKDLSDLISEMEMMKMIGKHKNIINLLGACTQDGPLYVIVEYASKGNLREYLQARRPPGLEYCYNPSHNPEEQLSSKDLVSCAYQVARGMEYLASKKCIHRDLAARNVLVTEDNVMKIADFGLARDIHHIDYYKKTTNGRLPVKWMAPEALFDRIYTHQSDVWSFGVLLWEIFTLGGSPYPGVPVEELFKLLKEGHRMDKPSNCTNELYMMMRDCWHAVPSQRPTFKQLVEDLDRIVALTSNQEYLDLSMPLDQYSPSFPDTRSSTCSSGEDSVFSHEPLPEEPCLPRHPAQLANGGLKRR
T7 sequence (O43318 1-303 limits assumed): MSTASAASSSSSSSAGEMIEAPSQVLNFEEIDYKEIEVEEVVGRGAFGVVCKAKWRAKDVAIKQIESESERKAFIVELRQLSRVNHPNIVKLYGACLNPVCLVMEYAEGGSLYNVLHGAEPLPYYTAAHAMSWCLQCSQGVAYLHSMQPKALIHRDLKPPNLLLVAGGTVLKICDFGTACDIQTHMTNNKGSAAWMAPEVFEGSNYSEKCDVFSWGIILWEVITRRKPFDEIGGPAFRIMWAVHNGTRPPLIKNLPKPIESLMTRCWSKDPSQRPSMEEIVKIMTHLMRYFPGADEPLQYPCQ
T14 sequence (P11309 whole entry, species assumed): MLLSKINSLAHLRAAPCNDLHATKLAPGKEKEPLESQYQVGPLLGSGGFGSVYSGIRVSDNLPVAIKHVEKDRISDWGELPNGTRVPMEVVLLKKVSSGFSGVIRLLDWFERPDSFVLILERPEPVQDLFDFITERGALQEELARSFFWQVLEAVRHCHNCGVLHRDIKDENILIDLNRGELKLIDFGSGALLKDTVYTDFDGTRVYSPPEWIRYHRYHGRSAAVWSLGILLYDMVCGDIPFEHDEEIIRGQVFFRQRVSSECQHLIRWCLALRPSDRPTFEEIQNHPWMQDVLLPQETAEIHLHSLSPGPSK
Chain of CLK2 (P49760 whole entry, species assumed): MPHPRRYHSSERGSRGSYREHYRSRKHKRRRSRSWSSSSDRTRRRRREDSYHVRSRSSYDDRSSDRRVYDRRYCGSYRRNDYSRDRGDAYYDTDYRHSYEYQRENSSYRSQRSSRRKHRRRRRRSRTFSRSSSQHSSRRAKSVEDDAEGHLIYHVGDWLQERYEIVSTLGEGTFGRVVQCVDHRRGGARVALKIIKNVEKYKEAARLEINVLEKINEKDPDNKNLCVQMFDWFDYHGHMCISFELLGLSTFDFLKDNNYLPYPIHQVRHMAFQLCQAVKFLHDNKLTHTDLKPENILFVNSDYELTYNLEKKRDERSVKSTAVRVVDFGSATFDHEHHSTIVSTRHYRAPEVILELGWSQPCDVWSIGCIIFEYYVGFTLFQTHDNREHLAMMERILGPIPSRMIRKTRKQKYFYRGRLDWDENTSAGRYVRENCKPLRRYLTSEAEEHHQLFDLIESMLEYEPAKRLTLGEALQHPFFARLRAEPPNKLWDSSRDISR

What is called inhibition is the change of the read-out against control, counted positive when it falls. `O=C(Nc1cnc2[nH]cnn2c1=O)c1ccccc1` [E1]: the inhibition at 100 µM at MSK1 was more than 40%. In [1], the “number of kinases inhibited with >40% inhibition” value (“number … with >40% inhibition” for short) is “one”.
Consider `Nc1cnc2c(-c3c(F)cccc3F)cccn2c1=O` [A2], for which the LE at Aurora A turned out to be 0.26 kcal/mol heavy atom; on CK2, 0.27 kcal/mol heavy atom; on FGF-R1 it was 0.25 kcal/mol heavy atom; on GCK, 0.38 kcal/mol heavy atom; on IGF-1R it was 0.30 kcal/mol heavy atom; at TAK1, 0.32 kcal/mol heavy atom. Besides, the LE at CDK2 amounted to 0.33 kcal/mol heavy atom; at CLK2 it was 0.32 kcal/mol heavy atom. In addition, the “number … with >40% inhibition” value in [1] is listed as 55.
For `Nc1nc2cnc(-c3ccccc3)cn2n1` [B1], the LE at CHK2 came to 0.42 kcal/mol heavy atom; on GCK, 0.46 kcal/mol heavy atom; at HER4, 0.41 kcal/mol heavy atom; at IGF-1R it was 0.40 kcal/mol heavy atom; at Src, 0.41 kcal/mol heavy atom; at TAK1, 0.43 kcal/mol heavy atom. Further, the LE on YES1 was determined as 0.41 kcal/mol heavy atom; on VEG-FR it was 0.39 kcal/mol heavy atom. In addition, the “number of kinases of the docking panel for which activity was found” value in assay [1] is listed as 31. In [1], the “number … with >40% inhibition” value is reported as 63.
For `O=c1c(NC(=S)NCc2ccccc2)cnc2[nH]ccn12` [F2], the inhibition at 100 µM at MKK1 was more than 40%. Further, the “number … with >40% inhibition” value in assay [1] is on record as “one”.
As to `CC(C)(C)Nc1c(C2CC2)nc2[nH]cnn12` [D1], the LE on EPH-B3 is on record as 0.33 kcal/mol heavy atom; on FGF-R1 it was 0.29 kcal/mol heavy atom.
As to `CC(=O)Nc1nc2cnc(-c3c(C)cccc3C)cn2n1` [B4], the “number of kinases of the docking panel for which activity was found” value in assay [1] is “did not inhibit any kinase in the docking panel”.
In the case of `O=c1cc(-c2ccccc2F)nc2[nH]ccn12` [F3], the LE at PIM1 amounted to 0.38 kcal/mol heavy atom; at PIM3 it was 0.40 kcal/mol heavy atom.
`COc1ccc(-c2cc3c(=O)[nH]cnc3s2)cc1OC` [C2]: the LE on SGK1 was determined as 0.28 kcal/mol heavy atom; at GSK-3β it was 0.32 kcal/mol heavy atom.
Turning to `CC1CN(c2nc3ccccn3c(=O)c2N)CC(C)O1` (centres unmarked) [A1], the LE on CK2 came to 0.33 kcal/mol heavy atom; at MAPKAP-K3, 0.33 kcal/mol heavy atom; at RSK2, 0.26 kcal/mol heavy atom; on Src, 0.28 kcal/mol heavy atom; on SRPK1 it was 0.28 kcal/mol heavy atom.
